Laboratory results from US20220145304A1, “MODIFIED MICRORNAS AND THEIR USE IN THE TREATMENT OF CANCER” (The Research Foundation for The State University of New York, priority 2019, published 2022).
Several values for one entry are separate records, joined by “and”; a condition that tells them apart may be missing. Equal values may be shown once. Entries after “also recorded” stand apart in the source; their conditions may differ.

Tests used:
[1] = tested on: HS766T pancreatic cancer cells; assay: Cell viability assay (WST-1) in HS766T pancreatic cancer cells; assay type: cell-based, human; details: for IC50: WST-1 dye 6 days after treatment, calculated using CompuSyn
Protocol: (§1) Cell culture. The human pancreatic cancer cell lines ASPC-1, HS766T, and Panc-1, were obtained from the American Type Culture Collection (ATCC) and maintained in various types of media. Specifically, HS766T and PANC1 cells were cultured in DMEM containing media, and APSC-1 cells were maintained in RPMI medium (Thermo Fischer). Media was supplemented with 10% fetal bovine serum (Thermo Fischer).
(§2) Cell viability assay. Cells were plated 1000 cells per well in 96 well plates. Twenty four hours later cell media was changed to media supplemented with DFBS, with 50, 25, 12.5, 6.25, 3.125 or 1.5625 nM of Control miRNA (Thermo Fischer), miR-194, 5-FU-miR-194, Gem-mIR-194 or 5-FU-Gem-miR-194. 24 hours later media was changed again to fresh media supplemented with DFBS. 6 days after treatment cell number was assessed using WST-1 dye (Roche). Cells were incubated with 10 μl of WST-1 dye per 100 μl of media for 1 hour and absorbance was read at 450 and 630 nm. The optical density (O.D.) was calculated by subtracting the absorbance at 630 nm from that at 450 nm. IC^50 values were calculated using CompuSyn software (ComboSyn, Inc).

BMI1 = assay: Western immunoblot analysis of miR-194 target BMI1 expression; assay type: cell-based, human; details: 50 nM
Protocol: as §1
(§3) Western immunoblot analysis. Twenty-four hours prior to transfection 1×10^5 cells were plated in 6 well plates. Cells were either transfected using Oligofectamine (Thermo Fischer) or no transfection vehicle, with 50 nM control miRNA (Thermo Fischer), miR-194 or one of the three miR-194 mimics. Three days following transfection protein was collected in RIPA buffer with protease inhibitor (Sigma). Equal amounts of protein (15 μg), were separated on 10% sodium dodecyl sulfate-polyacrylamide gels as described in Laemmli U K. Nature. 1970; 227(5259) pp. 680-685, the entire contents of which is incorporated herein by reference. Proteins were probed with anti-SET8 or BMI-1 (1:500) (Cell Signaling Technologies) and anti-GAPDH (1:100000) antibodies. Horseradish peroxidase conjugated antibodies against mouse or rabbit (1:5000, Santa Cruz Biotech Inc.) were used as the secondary antibodies. Protein bands were visualized with autoradiography film using SuperSignal West Pico Chemiluminescent Substrate (Thermo Fischer).

[2] = tested on: ASPC1 pancreatic cancer cells; assay: Cell viability assay (WST-1) in ASPC1 pancreatic cancer cells; assay type: cell-based, human; details: for IC50: WST-1 dye 6 days after treatment, calculated using CompuSyn
Protocol: as §1, §2

SET8 = assay: Western immunoblot analysis of miR-194 target SET8 expression; assay type: cell-based, human; details: 50 nM
Protocol: as §1, §3

[3] = tested on: PANC1 pancreatic cancer cells; assay: Cell viability assay (WST-1) in PANC1 pancreatic cancer cells; assay type: cell-based, human; details: for IC50: WST-1 dye 6 days after treatment, calculated using CompuSyn
Protocol: as §1, §2

[4] = tested on: Luciferase-expressing HS766T cells; assay: Pancreatic cancer metastasis mouse model (tail vein injection, IVIS imaging); assay type: in vivo; details: 80 μg intravenous injection every other day for two weeks, started four days after establishing metastasis, versus negative control microRNA
Protocol: (§4) Mouse subcutaneous tumor implantation model. For in vivo miRNA delivery experiments, pancreatic cancer cells were created that expressed the lenti-luc reporter gene by infecting parental pancreatic cancer cells with a recombinant lentivirus. Luciferase-expressing HS766T cells (2.0×10^6 cells per mouse) were suspended in 0.1 mL of PBS solution and was injected through tail vein of each mouse. Four days after injection of pancreatic cancer cells, mice were treated via tail vein injection with 80 μg of negative control or modified miR(s) packaged with in vivo-jet PEI (Polyplus Transfection). Mice were treated every other day for 2 weeks (8 times). Following treatment, mice were screened using IVIS Spectrum In vivo Imaging System (IVIS) (PerkinElmer).

[5] = Toxicity in mice treated in the pancreatic cancer metastasis model; assay type: in vivo; details: mouse; 80 μg intravenous injection every other day for two weeks
Protocol: as §4

[6] = in the presence of a transfection agent (Oligofectamine), three days following transfection, FIG. 2C
[7] = no transfection vehicle, three days, FIG. 2D
[8] = in the presence of a transfection agent (Oligofectamine), three days following transfection, FIG. 2A
[9] = no transfection vehicle, three days, FIG. 2B

| Substance | IC50 [1] [nM] | BMI1 protein expression (Western blot) (BMI1; [6]) | BMI1 protein expression (Western blot) (BMI1; [7]) | IC50 [2] [nM] | SET8 protein expression (Western blot) (SET8; [8]) | SET8 protein expression (Western blot) (SET8; [9]) | IC50 [3] | pancreatic cancer cell viability (in words) ([1]; 1.5625-50 nM, FIG. 3C) | pancreatic cancer cell viability (in words) ([2]; 1.5625-50 nM, FIG. 3A) | metastatic pancreatic cancer growth ([4]; FIG. 4) | metastatic pancreatic cancer growth ([4]; FIG. 4, listed as SEQ ID NO: 2) | metastatic pancreatic cancer growth ([4]; FIG. 4, listed as SEQ ID NOs: 2) | pancreatic cancer cell viability (in words) ([3]; 1.5625-50 nM, FIG. 3B) | toxicity in treated mice [5] |
| --- | --- | --- | --- | --- | --- | --- | --- | --- | --- | --- | --- | --- | --- | --- |
| 5-FU-miR-194 (NGNAACAGCAACNCCANGNGGA; 5-FU replacing U; fluorouracil modified miR-194 with a fluorouracil molecule at positions 1, 3, 13, 17 and 19; (1)..(1) N is Fluorouracil molecule; (3)..(3) N is Fluorouracil molecule; (13)..(13) N is Fluorouracil molecule; (17)..(17) N is Fluorouracil molecule; (19)..(19) N is Fluorouracil molecule) | 26.4 | more potent than unmodified (control) miR-194 | retain the ability to inhibit | 6.06 | more potent than unmodified (control) miR-194 | retain the ability to inhibit SET8 | 16 nM and 16.7 nM | – | – | – | – | – | – | – |
| Gem-miR-194: modified miR-194, all 5 cytosine bases in the guide strand replaced by gemcitabine: UGUAANAGNAANUNNAUGUGGA [SEQ ID NO. 2], N is gemcitabine (cytosines replaced by gemcitabine, chemistry not fully specified) | 3.57 | more potent than unmodified (control) miR-194; also recorded: inhibit SET8 and BMI1 | retain the ability to inhibit; also recorded: inhibit SET8 and BMI1 | 4.29 | more potent than unmodified (control) miR-194; also recorded: inhibit SET8 and BMI1 | retain the ability to inhibit SET8; also recorded: inhibit SET8 and BMI1 | 1.92 nM | reduce pancreatic cancer cell viability | reduce pancreatic cancer cell viability | able to inhibit metastatic pancreatic cancer growth compared to control | inhibiting tumor growth in vivo | able to inhibit metastatic pancreatic cancer growth compared to control | reduce pancreatic cancer cell viability | did not exhibit any toxicity |
| miR-194: unmodified (native) miR-194 sequence UGUAACAGCAACUCCAUGUGGA [SEQ ID NO. 1] (unmodified RNA; listed as Homo sapiens) [reference compound] | – | – | unable to inhibit target expression | – | – | – | – | – | – | – | – | – | – | – |
